This note sets out measurements from ChEMBL document CHEMBL1124036 (J Med Chem, 1988).

SMILES strings stand for the structures.

The first test has as its system Vaccinia virus. Description: The minimum inhibitory concentration required for 50% inhibition of vaccinia virus induced cytopathogenic effect in L929 cells; G indicates CPE reduction <50%. The conditions noted are these: Orthopoxvirus vaccinia. The test is classed as functional, organism-based.
On to `Nc1nc(Cl)nc2c1ncn2C1O[C@H](CO)[C@H](O)[C@H]1N` (some centres undefined), for which the MIC50 result is “CPE reduction <50%”.

The test system of another test is Vaccinia virus. As to the kind of experiment: Virus rating on vaccinia virus measured as the degree of inhibition of virus induced cytopathogenic effect in L929 cells.
Settings: not given
The test is classed as functional, Orthopoxvirus vaccinia. Background: Cytopathic effects are the visible damage that an infection or toxin causes in cultured cells.
`Nc1nc(Cl)nc2c1ncn2C1O[C@H](CO)[C@H](O)[C@H]1I` (some centres undefined): the Virus rating was found to be 0.
On the same count and under the same terms, the same measure for `Nc1nc(Cl)nc2c1ncn2C1O[C@H](CO)[C@H](O)[C@H]1Br` (some centres undefined): 0.4; for `[N-]=[N+]=N[C@H]1C(n2cnc3c(N)nc(Cl)nc32)O[C@H](CO)[C@@H]1O` (some centres undefined): 0.8; for `[N-]=[N+]=N[C@H]1C(n2cnc3c(N)nc(F)nc32)O[C@H](CO)[C@@H]1O` (some centres undefined): 2.4.
On the same count and under the same terms, the same measure for `Nc1nc(Cl)nc2c1ncn2C1O[C@H](CO)[C@H](O)[C@H]1N` (some centres undefined): 0.6; for `Nc1nc(F)nc2c1ncn2C1O[C@H](CO)[C@H](O)[C@H]1N` (some centres undefined): 0.7.
On the same count and under the same terms, the result for `Nc1nc(Cl)nc2c1ncn2C1O[C@H](CO)[C@H](O)[C@H]1Cl` (some centres undefined) reads 0.7; that for `Nc1nc(F)nc2c1ncn2C1O[C@H](CO)[C@H](O)[C@H]1Cl` (some centres undefined), 0.6.
